Measured values published in US10757937B2, “Sulfonamides that activate ABA receptors” (The Regents of the University of California, priority 2014, dated 2020).
Like-named read-outs stand apart in the source and are kept apart here.

How the values were obtained:
[1] = molecular target: T1, PYR1 (Arabidopsis thaliana, UniProt O49686); experiment: receptor-mediated PP2C (HAB1) inhibition in vitro assay; assay type: biochemical; conditions: for remaining activity at 50 µM: 50 uM of the test compound; for IC50: Table XII-B, calculated from dose curves, read-out: PP2C Activity (IC50 in uM) PYR1
T1 construct: 6X-His; made in house; host or cells: E. coli BL21[DE3]pLysS
T1 sequence (O49686 1-191): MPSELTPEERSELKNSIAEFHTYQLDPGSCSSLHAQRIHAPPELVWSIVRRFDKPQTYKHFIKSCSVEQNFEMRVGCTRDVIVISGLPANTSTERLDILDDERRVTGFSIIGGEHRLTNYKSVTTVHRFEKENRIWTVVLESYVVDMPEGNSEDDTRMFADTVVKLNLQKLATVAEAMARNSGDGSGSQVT
T1 sequence (Q9CAJ0 23-511 partner): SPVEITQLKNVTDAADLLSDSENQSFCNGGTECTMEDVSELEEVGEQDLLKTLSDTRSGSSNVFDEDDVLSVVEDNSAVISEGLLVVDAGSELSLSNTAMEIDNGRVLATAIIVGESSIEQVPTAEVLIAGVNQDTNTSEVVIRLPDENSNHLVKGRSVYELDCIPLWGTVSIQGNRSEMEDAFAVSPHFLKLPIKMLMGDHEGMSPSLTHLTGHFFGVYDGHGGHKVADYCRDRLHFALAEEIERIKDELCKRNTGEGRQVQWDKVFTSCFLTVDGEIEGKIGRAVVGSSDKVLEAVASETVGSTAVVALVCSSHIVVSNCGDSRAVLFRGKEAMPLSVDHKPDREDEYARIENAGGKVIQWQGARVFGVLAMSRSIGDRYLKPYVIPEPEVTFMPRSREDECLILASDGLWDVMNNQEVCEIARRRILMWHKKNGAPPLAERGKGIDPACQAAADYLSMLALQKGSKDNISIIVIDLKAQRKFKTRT
In short: (§1)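 Compounds, tested at 25 μM or 50 uM with ABA at 10 uM, were incubated with recombinant receptor and 50 nM GST-HAB1 (2:1 ratio) in MnCl2-containing Tris-OAc buffer, pH 7.9. Phosphatase activity was followed by 4-methylumbelliferyl-phosphate fluorescence.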

[2] = molecular target: T2, PYL3 (Arabidopsis thaliana, UniProt Q9SSM7); experiment: as above; assay type: biochemical; conditions: for remaining activity at 50 µM: 50 uM of the test compound; for IC50: Table XII-B, calculated from dose curves, read-out: PP2C Activity (IC50 in uM) PYL3
T2 construct: 6X-His; made in house; host or cells: E. coli BL21[DE3]pLysS
T2 sequence (Q9SSM7 1-209): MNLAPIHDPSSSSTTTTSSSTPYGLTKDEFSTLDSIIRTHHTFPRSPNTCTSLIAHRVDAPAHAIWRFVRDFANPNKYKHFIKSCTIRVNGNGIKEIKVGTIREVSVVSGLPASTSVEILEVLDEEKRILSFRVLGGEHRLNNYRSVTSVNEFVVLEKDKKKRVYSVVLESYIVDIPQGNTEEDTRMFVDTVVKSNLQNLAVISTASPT
T2 sequence (Q9CAJ0 23-511 partner): T1 sequence (Q9CAJ0 23-511 partner)
In short: as §1

[3] = molecular target: T3, PYL10 (Arabidopsis thaliana, UniProt Q8H1R0); experiment: as above; assay type: biochemical; conditions: for remaining activity at 50 µM: 50 uM of the test compound; for IC50: Table XII-B, calculated from dose curves, read-out: PP2C Activity (IC50 in uM) PYL10
T3 construct: 6X-His; made in house; host or cells: E. coli BL21[DE3]pLysS
T3 sequence (Q8H1R0 1-183): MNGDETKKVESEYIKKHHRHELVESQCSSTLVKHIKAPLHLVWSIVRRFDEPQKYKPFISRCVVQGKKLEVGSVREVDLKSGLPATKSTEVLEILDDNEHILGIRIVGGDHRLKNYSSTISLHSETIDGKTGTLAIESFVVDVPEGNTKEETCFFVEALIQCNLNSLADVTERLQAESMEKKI
T3 sequence (Q9CAJ0 23-511 partner): T1 sequence (Q9CAJ0 23-511 partner)
In short: as §1

[4] = tested on: Arabidopsis seed germination and hypocotyl growth; experiment: Arabidopsis seed germination and hypocotyl growth; assay type: in vivo; conditions: Arabidopsis thaliana, Germination Effects III, tested at 1, 5, 10, 25 and 50 uM, — = none
In short: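 Wild-type seeds germinated on ½× Murashige and Skoog medium with compound at 10 and 50 uM, or in a later series at 1, 5, 10, 25 and 50 uM. Reported value is the lowest tested concentration that inhibited germination or hypocotyl growth in wells where seeds germinated.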

[5] = lowest concentration inhibiting hypocotyl growth, read-out: Growth Inhibition
[6] = lowest inhibiting concentration, read-out: Germination Inhibition

Row | Structure (SMILES) | remaining activity at 50 µM [1] | IC50 [1] | remaining activity at 50 µM [2] | IC50 [2] | remaining activity at 50 µM [3] | minimal effective concentration [4, 5] | minimal effective concentration [4, 6] | IC50 [3]
1 | CC1CCC(C(=O)NS(=O)(=O)Cc2ccc(C#N)cc2)(c2ccc(F)cc2)CC1 (centres unmarked) [Compound 67, N-[(4-Cyanophenyl)methanesulfonyl]-1-(4-fluorophenyl)-4-methylcyclohexane-1-carboxamide] | 99.6% | > 50 µM | 101% | > 50 µM | 48.2% | 10 µM | 25 µM | 
2 | CC1(C)CCC(C(=O)NS(=O)(=O)Cc2ccc(C#N)cc2)(c2ccc(F)cc2)CC1 [Compound 68, N-[(4-Cyanophenyl)methanesulfonyl]-1-(4-fluorophenyl)-4,4-dimethylcyclohexane-1-carboxamide] | 94.4% | > 50 µM | 98.3% | > 50 µM | 83.3% | 10 µM | 25 µM | > 50 µM
3 | N#Cc1ccc(CS(=O)(=O)NC(=O)C2(c3ccccc3)CCCCC2)cc1 [Compound 69, N-[(4-Cyanophenyl)methanesulfonyl]-1-phenylcyclohexane-1-carboxamide] | 96% | > 50 µM | 103% | > 50 µM | 27.3% | 1 µM | 5 µM | 1.69 µM
4 | N#Cc1ccc(CS(=O)(=O)NC(=O)C2(c3cccs3)CCCCC2)cc1 [Compound 75, N-[(4-Cyanophenyl)methanesulfonyl]-1-(thiophen-2-yl)cyclohexane-1-carboxamide] | 96.1% | > 50 µM | 95.4% | > 50 µM | 27% | 5 µM | 5 µM | 0.38 µM
5 | N#Cc1ccc(CS(=O)(=O)NC(=O)C2(c3ccsc3)CCCCC2)cc1 [Compound 78, N-[(4-Cyanophenyl)methanesulfonyl]-1-(thiophen-3-yl)cyclohexane-1-carboxamide] | 90.9% | > 50 µM | 103% | > 50 µM | 25.6% | 2.5 µM | 2.5 µM | 0.25 µM
6 | N#Cc1ccc(CS(=O)(=O)NC(=O)C2(c3ccsc3)CCCCC2)cc1Br [Compound 106, N-[(4-Cyano-3-bromophenyl)methanesulfonyl]-1-(thiophen-3-yl)cyclohexane-1-carboxamide] | 98.9% | > 50 µM | 96.9% | > 50 µM | 22.5% | 1 µM | 1 µM | 0.022 µM
